Here are results for 15 molecules from patent US4529549A, “Spergualin-related compounds and process for the preparation thereof” (Zaidan Hojin Biseibutsu Kagaku Kenkyu Kai, priority 1982, dated 1985).

Each structure is given as a SMILES string. Values after ≈ are worked out from the molar mass of the structure shown. Where a name gives a salt, the structure may show the parent alone. Read-outs that look alike come from different tables or passages of the source.

For one series, the system named is Bacillus subtilis PCI219. Description: Growth-inhibiting action on Bacillus subtilis (agar plate MIC). The format is cell-based. To be noted: nutrient agar, 20 hours at 37° C. On the procedure: Each of the compounds of this invention was dissolved in nutrient agar media to final concentrations of 100, 50, 25, 12.5, 6.25, 3.13 and 1.56 μg/ml, to prepare agar plates for testing. Bacillus subtilis PCI219 was adjusted to a content of 1×10^6 viable cells/ml, in a culture broth, and a loopful of the broth was applied onto the agar plates. The plates were incubated for 20 hours at 37° C. under stationary conditions, and observed for the formation of colonies of Bacillus subtilis. The lowest of the concentrations at which no colonies were formed was taken to be minimum inhibitory concentration (MIC).

Series [1] deals with mouse leukemia L1210 cells. In words: In vitro proliferation-inhibiting action on mouse leukemia L1210 cells. The settings on record: 48 hours at 37° C. The format is cell-based. On the procedure: Leukemia L1210 cells (1×10^5 /0.2 ml) were transplanted to female DBA/2 mice intraperitoneally. four days later, the ascitic fluid was collected and centrifuged to obtain proliferated L1210 cells. The L1210 cells collected were added to RPMI1640 medium containing bovine fetal serum and 2-mercaptoethanol, to obtain a suspension of L1210 cells having a final concentration of 5×10^4 cells/0.9 ml. Each of the compounds of this invention was dissolved in said culture medium to prepare solutions with final concentrations ranging from 0.062 to 100 μg/ml. 0.9 ml of the L1210 cell suspension and 0.1 ml of each test solution were mixed in petri dishes, and incubated for 48 hours at 37° C. in an incubator under an atmosphere of carbon dioxide gas. The number of L1210 cells was counted before and after the incubation, and that concentration of the compound which inhibited the proliferation of L1210 cells by 50% of the control's proliferation was determined (IC50).

A short description of series [2]: Stability of the compounds in aqueous solutions (HPLC residual content). The format is physicochemical. The settings on record: for remaining at 12 h / remaining at 24 h / remaining at 48 h / remaining at 72 h / remaining at 120 h / remaining at 168 h: water; for Residual content (%) of the compound in an aqueous solution: 0.5 (w/w)% in water, 40°±1° C., initial content = 100%. The procedure:
Each of the compounds of this invention was dissolved in water to a concentration of 0.5 (w/w)%. The aqueous solution was maintained at 40°±1° C., and sampled at certain time intervals. Each sample was subjected to high-performance liquid chromatographic analysis to measure the area of the peak of the compound at each sampling time, and to calculate the ratio of the area of the peak after the indicated period of time to that at the first sampling time. The results of the calculation were used to determine the contents (%) of the compound of this invention in the aqueous solution after the indicated periods of time, with the initial content of said compound set at 100%.

[3] abbreviates: Bacillus subtilis, PCI219, read-out: MIC.

Broadly, the MIC is the lowest concentration found to suppress growth. One may read the IC50 as the midpoint of a concentration-inhibition curve. Low readings indicate greater potency in that assay, high ones weaker potency in that assay. Take `C[C@@H](O)[C@H](NC(=O)CCCCCCNC(=N)N)C(=O)NCCCCNCCCN` [Compound 15, 10-[N--(7-guanidinoheptanoyl)-L-threonyl]-1,5,10-triazadecane trihydrochloride]: the MIC with Bacillus subtilis PCI219 (setting [3]) stood at 100 µg/mL. The IC50 in series [1] worked out at 180 µg/mL. In addition, in series [2], the amount remaining at 12 h is 99.2%, the share remaining at 24 h amounted to 99.8%, the share remaining at 48 h worked out at 99.1% and the share remaining at 72 h is 100%. For the same molecule, in series [2], the amount remaining at 120 h came out at 99.6% and the fraction remaining at 168 h was 100%.
Consider `N=C(N)NCCCCCCC(=O)N[C@H](CO)C(=O)NCCCCNCCCN` [Compound 4, 10-[N--(7-guanidinoheptanoyl)-D-seryl]-1,5,10-triazadecane trihydrochloride], for which the MIC with Bacillus subtilis PCI219 (setting [3]) is 12.5 µg/mL. This molecule also yielded an IC50 in series [1] of 3.6 µg/mL. In addition, in series [2], the fraction remaining at 12 h came to 101%, the share remaining at 24 h is 100%, the amount remaining at 48 h came to 100% and the share remaining at 72 h worked out at 99.7%. In series [2], the share remaining at 120 h was 99.6% and the amount remaining at 168 h came out at 100%.
`N=C(N)NCCCCCCC(=O)N1CCC[C@H]1C(=O)NCCCCNCCCN` [Compound 8, 10-[N--(7-guanidinoheptanoyl)-L-prolyl]-1,5,10-triazadecane trihydrochloride]: the MIC in the series with Bacillus subtilis PCI219 (setting [3]) was > 100 µg/mL. In series [2], the fraction remaining at 12 h worked out at 100%, the share remaining at 24 h turned out to be 100%, the fraction remaining at 48 h is 99.6% and the share remaining at 72 h was found to be 99.8%. Moreover, in series [2], the share remaining at 120 h was 99.8% and the amount remaining at 168 h amounted to 100%.
With `N=C(N)NCCCC[C@H](O)CC(=O)N[C@@H](CO)C(=O)NCCCCNCCCN` [Compound 3, 10-[N--(7-guanidino-3(S)--hydroxyheptanoyl)-L-seryl]-1,5,10-triazadecane trihydrochloride], the MIC in the series with Bacillus subtilis PCI219 (setting [3]) is 6.25 µg/mL. The molecule also showed a half-maximal inhibitory concentration (IC50) in series [1] of 0.95 µg/mL. For the same molecule, in series [2], the fraction remaining at 12 h was determined as 99.3%, the amount remaining at 24 h is 99.5%, the amount remaining at 48 h was determined as 100% and the share remaining at 72 h came to 99.6%. Also, in series [2], the fraction remaining at 120 h was determined as 99.7% and the amount remaining at 168 h was found to be 100%.
As to `N=C(N)NCCCCCCC(=O)NCCC(=O)NCCCCNCCCN` [Compound 6, 10-[N--(7-guanidinoheptanoyl)-β-alanyl]-1,5,10-triazadecane trihydrochloride], in the series on Bacillus subtilis PCI219 (setting [3]), the MIC was found to be 25 µg/mL. Moreover, in series [1], the half-maximal inhibitory concentration (IC50) came out at 0.84 µg/mL. Besides, in series [2], the amount remaining at 12 h stood at 100%, the share remaining at 24 h is 100%, the fraction remaining at 48 h turned out to be 99.6% and the share remaining at 72 h was 99.6%. In addition, in series [2], the amount remaining at 120 h turned out to be 99.9% and the amount remaining at 168 h came to 100%.
In the case of `N=C(N)NCCCCCCC(=O)N[C@@H](Cc1ccccc1)C(=O)NCCCCNCCCN` [Compound 13, 10-[N--(7-guanidinoheptanoyl)-L-phenylalanyl]-1,5,10-triazadecane trihydrochloride], the minimum inhibitory concentration (MIC) with Bacillus subtilis PCI219 (setting [3]) was > 100 µg/mL. In series [1], this molecule yielded a half-inhibitory concentration (IC50) of 2.8 µg/mL. Also, in series [2], the fraction remaining at 12 h worked out at 99.8%, the amount remaining at 24 h came out at 99.5%, the share remaining at 48 h amounted to 99.9% and the share remaining at 72 h was found to be 100%. Besides, in series [2], the amount remaining at 120 h stood at 101% and the amount remaining at 168 h amounted to 100%.
Regarding `N=C(N)NCCCCCCC(=O)NC(CCO)C(=O)NCCCCNCCCN` (racemic) [Compound 18], the MIC with Bacillus subtilis PCI219 (setting [3]) stood at 100 µg/mL (≈ 241 µM). Besides, the IC50 in series [1] amounted to 150 µg/mL (≈ 361 µM). For the same molecule, in series [2], the amount remaining at 12 h was determined as 100%, the fraction remaining at 24 h came to 99.5%, the share remaining at 48 h was 99.7% and the share remaining at 72 h amounted to 99.3%. Besides, in series [2], the amount remaining at 120 h turned out to be 99.7% and the share remaining at 168 h stood at 99.5%.
Consider `N=C(N)NCCCCCCC(=O)N[C@@H](Cc1cnc[nH]1)C(=O)NCCCCNCCCN` [Compound 14, 10-[N--(7-guanidinoheptanoyl)-L-histidyl]-1,5,10-triazadecane trihydrochloride], for which the minimal inhibitory concentration (MIC) with Bacillus subtilis PCI219 (setting [3]) stood at 50 µg/mL. Further, in series [1], the 50% inhibitory concentration (IC50) was determined as 51 µg/mL. For the same molecule, in series [2], the share remaining at 12 h was determined as 99.1%, the amount remaining at 24 h was 99%, the fraction remaining at 48 h was 99.6% and the share remaining at 72 h came to 99.5%. In addition, in series [2], the amount remaining at 120 h stood at 99.9% and the share remaining at 168 h worked out at 99.6%.
As to `N=C(N)NCCCCCCC(=O)N[C@@H](CC(=O)O)C(=O)NCCCCNCCCN` [Compound 10, 10-[N--(7-guanidinoheptanoyl)-L-asparthyl]-1,5,10-triazadecane trihydrochloride], the MIC in the series on Bacillus subtilis PCI219 (setting [3]) is > 100 µg/mL. In addition, half-maximal inhibition in series [1] (IC50) required 130 µg/mL. Moreover, in series [2], the share remaining at 12 h came out at 99.9%, the amount remaining at 24 h is 99.4%, the fraction remaining at 48 h is 99.8% and the amount remaining at 72 h worked out at 100%. In series [2], the amount remaining at 120 h worked out at 99.8% and the share remaining at 168 h was found to be 99.9%.
Regarding `CC(=O)O[C@@H](CCCCNC(=N)N)CC(=O)NCC(=O)NCCCCNCCCN` [Compound 16, 10-[N--(7-guanidino-3(S)--acetoxyheptanoyl)-glycyl-1,5,10-triazadecanetrihydrochloride], in the series with Bacillus subtilis PCI219 (setting [3]), the MIC is > 100 µg/mL. Also, in series [2], the share remaining at 12 h is 99.9%, the fraction remaining at 24 h was 99.5%, the share remaining at 48 h was 99.6% and the fraction remaining at 72 h is 99.2%. Besides, in series [2], the share remaining at 120 h worked out at 99.6% and the fraction remaining at 168 h was 99.6%.
In the case of `Cl.Cl.Cl.N=C(N)NCCCCCCC(=O)N[C@@H](CCC(N)=O)C(=O)NCCCCNCCCN` [Compound 11, 10-[N--(7-guanidinoheptanoyl)-L-glutaminyl]-1,5,10-triazadecane trihydrochloride], the MIC in the series with Bacillus subtilis PCI219 is > 100 µg/mL. The “Residual content (%) of the compound in an aqueous solution” value stood at 99.5% in series [2] (12 hr); 99.7% in series [2] (24 hr); 101% in series [2] (48 hr); 99.5% in series [2] (72 hr); 100% in series [2] (120 hr); 99.3% in series [2] (168 hr).
As for `N=C(N)NCCCCCCC(=O)N[C@@H](CCCNC(=N)N)C(=O)NCCCCNCCCN` [Compound 12, 10-[N--(7-guanidinoheptanoyl)-L-arginyl]-1,5,10-triazadecane trihydrochloride], in the series on Bacillus subtilis PCI219 (setting [3]), the minimum inhibitory concentration (MIC) was 12.5 µg/mL. The molecule further came in with a 50% inhibitory concentration (IC50) in series [1] of 1.5 µg/mL. Also, in series [2], the fraction remaining at 12 h stood at 100%, the amount remaining at 24 h stood at 99.4%, the share remaining at 48 h worked out at 99.7% and the fraction remaining at 72 h is 99.9%. For the same molecule, in series [2], the share remaining at 120 h turned out to be 100% and the share remaining at 168 h was determined as 99.7%.
Take `CC(C)C[C@H](NC(=O)CCCCCCNC(=N)N)C(=O)NCCCCNCCCN` [Compound 9, 10-[N--(7-guanidinoheptanoyl)-L-leucyl]-1,5,10-triazadecane trihydrochloride]: the MIC in the series with Bacillus subtilis PCI219 (setting [3]) was > 100 µg/mL. Besides, the half-maximal inhibitory concentration (IC50) in series [1] came out at 70 µg/mL. In addition, in series [2], the share remaining at 12 h amounted to 99.7%, the share remaining at 24 h was 99.9%, the amount remaining at 48 h was found to be 99.8% and the amount remaining at 72 h was determined as 100%. For the same molecule, in series [2], the amount remaining at 120 h turned out to be 100% and the share remaining at 168 h worked out at 99.9%.
With `N=C(N)NCCCCCCCCC(=O)N[C@@H](CO)C(=O)NCCCCNCCCN` [Compound 17, 10-[N--(9-guanidinononanoyl)-L-seryl]-1,5,10-triazadecane trihydrochloride], the MIC in the series on Bacillus subtilis PCI219 (setting [3]) was determined as 6.25 µg/mL. For the same molecule, in series [1], 11.3 µg/mL corresponded to half-maximal inhibition (IC50). In series [2], the amount remaining at 12 h is 99.6%, the fraction remaining at 24 h is 100%, the share remaining at 48 h was found to be 99.8% and the fraction remaining at 72 h stood at 99.7%. Also, in series [2], the share remaining at 120 h is 100% and the share remaining at 168 h was determined as 99.3%.
Take `N=C(N)NCCCCCCC(=O)NCCCC(=O)NCCCCNCCCN` [Compound 7, 10-[N--(7-guanidinoheptanoyl)-γ-aminobutanoyl]-1,5,10-triazadecane trihydrochloride]: the MIC in the series with Bacillus subtilis PCI219 (setting [3]) amounted to 25 µg/mL. In series [1], the IC50 was determined as 1.9 µg/mL. In addition, in series [2], the share remaining at 12 h came to 99.9%, the fraction remaining at 24 h stood at 100%, the fraction remaining at 48 h stood at 99.8% and the amount remaining at 72 h turned out to be 99.9%. Moreover, in series [2], the fraction remaining at 120 h was found to be 100% and the amount remaining at 168 h worked out at 99.8%.
